# Test results published in ChEMBL document CHEMBL1255475, “Mutant prevention concentrations of four carbapenems against gram-negative rods” (2010).
# Experiments:
# Pseudomonas aeruginosa [1] = test: Ratio of mutant prevention concentration to minimum Inhibitory concentration for Pseudomonas aeruginosa P335; format: functional
# Pseudomonas aeruginosa [2] = test: Ratio of mutant prevention concentration to minimum Inhibitory concentration for Pseudomonas aeruginosa P322; format: functional
# Acinetobacter baumannii [3] = test: Ratio of mutant prevention concentration to minimum Inhibitory concentration for Acinetobacter baumannii A851; format: functional
# Pseudomonas aeruginosa [4] = test: Ratio of mutant prevention concentration to minimum Inhibitory concentration for Pseudomonas aeruginosa P356; format: functional
# Acinetobacter baumannii [5] = test: Ratio of mutant prevention concentration to minimum Inhibitory concentration for Acinetobacter baumannii A928; format: functional
# Pseudomonas aeruginosa [6] = test: Ratio of mutant prevention concentration to minimum Inhibitory concentration for Pseudomonas aeruginosa P365; format: functional
# Acinetobacter baumannii [7] = test: Ratio of mutant prevention concentration to minimum Inhibitory concentration for Acinetobacter baumannii A898; format: functional
# Pseudomonas aeruginosa [8] = test: Ratio of mutant prevention concentration to minimum Inhibitory concentration for Pseudomonas aeruginosa P328; format: functional
# Pseudomonas aeruginosa [9] = test: Ratio of mutant prevention concentration to minimum Inhibitory concentration for Pseudomonas aeruginosa P353; format: functional
# Pseudomonas aeruginosa [10] = test: Ratio of mutant prevention concentration to minimum Inhibitory concentration for Pseudomonas aeruginosa P327; format: functional
# Acinetobacter baumannii [11] = test: Ratio of mutant prevention concentration to minimum Inhibitory concentration for Acinetobacter baumannii A897; format: functional
# Pseudomonas aeruginosa [12] = test: Ratio of mutant prevention concentration to minimum Inhibitory concentration for Pseudomonas aeruginosa P349; format: functional
# Klebsiella pneumoniae [13] = test: Antibacterial activity against beta-lactamase-positive ESBL-negative Klebsiella pneumoniae E481 after 24 hrs by agar dilution method; format: functional; conditions: E481, 24 h
# Acinetobacter baumannii [14] = test: Antibacterial activity against Acinetobacter baumannii A910 after 24 hrs by agar dilution method; format: functional; conditions: A910, 24 h
# Acinetobacter baumannii [15] = test: Antibacterial activity against Acinetobacter baumannii A891 after 24 hrs by agar dilution method; format: functional; conditions: A891, 24 h
# Acinetobacter baumannii [16] = test: Antibacterial activity against Acinetobacter baumannii A867 after 24 hrs by agar dilution method; format: functional; conditions: A867, 24 h
# Pseudomonas aeruginosa [17] = test: Antibacterial activity against Pseudomonas aeruginosa P363 after 24 hrs by agar dilution method; conditions: P363, 24 h
# Acinetobacter baumannii [18] = test: Antibacterial activity against Acinetobacter baumannii A890 after 24 hrs by agar dilution method; format: functional; conditions: A890, 24 h
# Escherichia coli [19] = test: Antibacterial activity against beta-lactamase-positive ESBL-positive Escherichia coli E458 after 24 hrs by agar dilution method; conditions: E458, 24 h
# Pseudomonas aeruginosa [20] = test: Antibacterial activity against Pseudomonas aeruginosa P376 after 24 hrs by agar dilution method; conditions: P376, 24 h
# Pseudomonas aeruginosa [21] = test: Antibacterial activity against Pseudomonas aeruginosa P326 after 24 hrs by agar dilution method; conditions: P326, 24 h
# Klebsiella pneumoniae [22] = test: Antibacterial activity against beta-lactamase-positive ESBL-negative Klebsiella pneumoniae E509 after 24 hrs by agar dilution method; format: functional; conditions: E509, 24 h
# Klebsiella pneumoniae [23] = test: Antibacterial activity against beta-lactamase-positive ESBL-negative Klebsiella pneumoniae E480 after 24 hrs by agar dilution method; format: functional; conditions: E480, 24 h
# Escherichia coli [24] = test: Antibacterial activity against beta-lactamase-negative Escherichia coli E348 after 24 hrs by agar dilution method; conditions: E348, 24 h
# Klebsiella pneumoniae [25] = test: Antibacterial activity against beta-lactamase-negative Klebsiella pneumoniae E361 after 24 hrs by agar dilution method; format: functional; conditions: E361, 24 h
# Pseudomonas aeruginosa [26] = test: Antibacterial activity against Pseudomonas aeruginosa P349 after 24 hrs by agar dilution method; conditions: P349, 24 h
# Acinetobacter baumannii [27] = test: Antibacterial activity against Acinetobacter baumannii A903 after 24 hrs by agar dilution method; format: functional; conditions: A903, 24 h
# Pseudomonas aeruginosa [28] = test: Antibacterial activity against Pseudomonas aeruginosa P373 after 24 hrs by agar dilution method; conditions: P373, 24 h
# Klebsiella pneumoniae [29] = test: Antibacterial activity against beta-lactamase-negative Klebsiella pneumoniae E359 after 24 hrs by agar dilution method; format: functional; conditions: E359, 24 h
# Escherichia coli [30] = test: Antibacterial activity against beta-lactamase-negative Escherichia coli E346 after 24 hrs by agar dilution method; conditions: E346, 24 h
# Escherichia coli [31] = test: Antibacterial activity against beta-lactamase-positive ESBL-negative Escherichia coli E437 after 24 hrs by agar dilution method; conditions: E437, 24 h
# Acinetobacter baumannii [32] = test: Antibacterial activity against Acinetobacter baumannii A912 after 24 hrs by agar dilution method; format: functional; conditions: A912, 24 h
# Acinetobacter baumannii [33] = test: Antibacterial activity against Acinetobacter baumannii A898 after 24 hrs by agar dilution method; format: functional; conditions: A898, 24 h
# Klebsiella pneumoniae [34] = test: Antibacterial activity against beta-lactamase-positive ESBL-negative Klebsiella pneumoniae E511 after 24 hrs by agar dilution method; format: functional; conditions: E511, 24 h
# Klebsiella pneumoniae [35] = test: Antibacterial activity against beta-lactamase-positive ESBL-positive Klebsiella pneumoniae E453 after 24 hrs by agar dilution method; format: functional; conditions: E453, 24 h
# Escherichia coli [36] = test: Antibacterial activity against beta-lactamase-negative Escherichia coli E345 after 24 hrs by agar dilution method; conditions: E345, 24 h
# Escherichia coli [37] = test: Antibacterial activity against beta-lactamase-negative Escherichia coli E409 after 24 hrs by agar dilution method; conditions: E409, 24 h
# Klebsiella pneumoniae [38] = test: Antibacterial activity against beta-lactamase-negative Klebsiella pneumoniae E357 after 24 hrs by agar dilution method; format: functional; conditions: E357, 24 h
# Escherichia coli [39] = test: Antibacterial activity against beta-lactamase-negative Escherichia coli E344 after 24 hrs by agar dilution method; conditions: E344, 24 h
# Acinetobacter baumannii [40] = test: Antibacterial activity against Acinetobacter baumannii A908 after 24 hrs by agar dilution method; format: functional; conditions: A908, 24 h
# Escherichia coli [41] = test: Antibacterial activity against beta-lactamase-positive ESBL-negative Escherichia coli E483 after 24 hrs by agar dilution method; conditions: E483, 24 h
# Klebsiella pneumoniae [42] = test: Antibacterial activity against beta-lactamase-negative Klebsiella pneumoniae E420 after 24 hrs by agar dilution method; format: functional; conditions: E420, 24 h
# Pseudomonas aeruginosa [43] = test: Antibacterial activity against Pseudomonas aeruginosa P327 after 24 hrs by agar dilution method; conditions: P327, 24 h
# Acinetobacter baumannii [44] = test: Antibacterial activity against Acinetobacter baumannii A901 after 24 hrs by agar dilution method; format: functional; conditions: A901, 24 h
# Klebsiella pneumoniae [45] = test: Antibacterial activity against beta-lactamase-positive ESBL-negative Klebsiella pneumoniae E479 after 24 hrs by agar dilution method; format: functional; conditions: E479, 24 h
# Acinetobacter baumannii [46] = test: Antibacterial activity against Acinetobacter baumannii A848 after 24 hrs by agar dilution method; format: functional; conditions: A848, 24 h
# Pseudomonas aeruginosa [47] = test: Antibacterial activity against Pseudomonas aeruginosa P341 after 24 hrs by agar dilution method; conditions: P341, 24 h
# Acinetobacter baumannii [48] = test: Antibacterial activity against Acinetobacter baumannii A896 after 24 hrs by agar dilution method; format: functional; conditions: A896, 24 h
# Escherichia coli [49] = test: Antibacterial activity against beta-lactamase-positive ESBL-negative Escherichia coli E415 after 24 hrs by agar dilution method; conditions: E415, 24 h
# Pseudomonas aeruginosa [50] = test: Antibacterial activity against Pseudomonas aeruginosa P328 after 24 hrs by agar dilution method; format: functional; conditions: P328, 24 h
# Acinetobacter baumannii [51] = test: Antibacterial activity against Acinetobacter baumannii A928 after 24 hrs by agar dilution method; format: functional; conditions: A928, 24 h
# Acinetobacter baumannii [52] = test: Antibacterial activity against Acinetobacter baumannii A929 after 24 hrs by agar dilution method; format: functional; conditions: A929, 24 h
# Klebsiella pneumoniae [53] = test: Antibacterial activity against beta-lactamase-negative Klebsiella pneumoniae E419 after 24 hrs by agar dilution method; format: functional; conditions: E419, 24 h
smiles,measurement,setting,value
C[C@@H](O)[C@H]1C(=O)N2C(C(=O)O)=C(S[C@@H]3CN[C@H](CNS(N)(=O)=O)C3)[C@H](C)[C@H]12 [DORIPENEM],Ratio,Pseudomonas aeruginosa [1],8
same,Ratio,Pseudomonas aeruginosa [2],8
same,Ratio,Acinetobacter baumannii [3],4
same,Ratio,Pseudomonas aeruginosa [4],>16
same,Ratio,Acinetobacter baumannii [5],2
same,Ratio,Pseudomonas aeruginosa [6],16
same,Ratio,Acinetobacter baumannii [7],2
same,Ratio,Pseudomonas aeruginosa [8],2
same,Ratio,Pseudomonas aeruginosa [9],4
same,Ratio,Pseudomonas aeruginosa [10],16
same,Ratio,Acinetobacter baumannii [11],2
same,Ratio,Pseudomonas aeruginosa [12],16
C[C@@H](O)[C@H]1C(=O)N2C(C(=O)O)=C(SCCNC=N)C[C@H]12 [IMIPENEM ANHYDROUS],MIC,Klebsiella pneumoniae [13],4 µg/mL
same,MIC,Acinetobacter baumannii [14],0.5 µg/mL
same,MIC,Acinetobacter baumannii [15],0.5 µg/mL
same,MIC,Acinetobacter baumannii [16],4 µg/mL
same,MIC,Pseudomonas aeruginosa [17],2 µg/mL
same,MIC,Acinetobacter baumannii [18],0.5 µg/mL
same,MIC,Escherichia coli [19],0.125 µg/mL
same,MIC,Pseudomonas aeruginosa [20],4 µg/mL
same,MIC,Pseudomonas aeruginosa [21],16 µg/mL
same,MIC,Klebsiella pneumoniae [22],8 µg/mL
same,MIC,Klebsiella pneumoniae [23],2 µg/mL
same,MIC,Escherichia coli [24],0.125 µg/mL
same,MIC,Klebsiella pneumoniae [25],0.5 µg/mL
same,MIC,Pseudomonas aeruginosa [26],2 µg/mL
same,MIC,Acinetobacter baumannii [27],0.5 µg/mL
same,MIC,Pseudomonas aeruginosa [28],2 µg/mL
same,MIC,Klebsiella pneumoniae [29],0.5 µg/mL
same,MIC,Escherichia coli [30],0.125 µg/mL
same,MIC,Escherichia coli [31],0.25 µg/mL
same,MIC,Acinetobacter baumannii [32],2 µg/mL
same,MIC,Acinetobacter baumannii [33],1 µg/mL
same,MIC,Klebsiella pneumoniae [34],2 µg/mL
same,MIC,Klebsiella pneumoniae [35],0.125 µg/mL
same,MIC,Escherichia coli [36],0.25 µg/mL
same,MIC,Escherichia coli [37],0.25 µg/mL
same,MIC,Klebsiella pneumoniae [38],0.25 µg/mL
same,MIC,Escherichia coli [39],0.125 µg/mL
same,MIC,Acinetobacter baumannii [40],0.25 µg/mL
same,MIC,Escherichia coli [41],1 µg/mL
same,MIC,Klebsiella pneumoniae [42],0.25 µg/mL
same,MIC,Pseudomonas aeruginosa [43],2 µg/mL
same,MIC,Acinetobacter baumannii [44],2 µg/mL
same,MIC,Klebsiella pneumoniae [45],8 µg/mL
same,MIC,Acinetobacter baumannii [46],4 µg/mL
same,MIC,Pseudomonas aeruginosa [47],4 µg/mL
same,MIC,Acinetobacter baumannii [48],0.25 µg/mL
same,MIC,Escherichia coli [49],0.125 µg/mL
same,MIC,Pseudomonas aeruginosa [50],8 µg/mL
same,MIC,Acinetobacter baumannii [51],0.5 µg/mL
same,MIC,Acinetobacter baumannii [52],0.5 µg/mL
same,MIC,Klebsiella pneumoniae [53],0.5 µg/mL
